Like-named read-outs stand apart in the source and are kept apart here.
How the values were obtained:
[1] = biological target: AsPMT (Ascaris suum, UniProt F1L4B9); type: biochemical; settings: for Selectivity index (SI) AsPMT: IC50^Cytotoxicity/IC50^Enzyme; for IC50: read-out: Mean IC50 ± SEM, Enzyme AsPMT;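 for Selectivity index (SI) AsPMT: cytotoxicity IC50 measured in HCT-8 cells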
Protocol: (§1) The chemical compounds were obtained from the National Cancer Institute/Developmental Therapeutics Program Open Chemical Repository. […] Compounds were individually reconstituted in molecular biology grade dimethyl sulfoxide (DMSO) from Sigma-Aldrich to a stock concentration of 10 mM and stored at −20°C until use. Initial screening was conducted using recombinant HcPMT1 protein as enzyme in the methyltransferase assay, with test compounds at a final concentration of 40 μM. […] To the positive reaction mixture, instead of test compound, an equivalent volume of DMSO was added. In the negative-control reaction mixture, instead of HcPMT1 and test compound, equivalent volumes of 1× transferase buffer and DMSO, respectively, were added. Detection buffer (100 μL) containing fluorescence substrate was added into each reaction mixture. The reactions were prepared in triplicate wells in 96-well plates. The plates were covered in aluminum foil and incubated at room temperature with agitation for 30 min, followed by reading the fluorescence at 380EX/520EM. The mean percent inhibition (MPI) of the test compound on enzymatic activity was calculated using the following formula: MPI = ΔRFUpositive control − ΔRFUcompounds/ΔRFUpositive control × 100, where the positive control is a reaction without compound but with recombinant PMT protein and a volume of DMSO equivalent to that of compound used in test reactions; the negative control is the reaction without protein and compounds, but with volumes of dialysis buffer and DMSO equivalent to protein and compound added in the test reaction mixtures, respectively; ΔRFUpositive control represents the absolute relative fluorescence units (RFU) for the positive control, which equals RFUpositive control – RFUnegative control; and ΔRFUcompounds represents the absolute RFU value for the sample with the compounds, which equals RFUcompounds – RFUnegative control.
(§2) The enzymatic assay was set up as described above, with the respective PMT protein as enzyme.

[2] = biological target: OdPMT (Oesophagostomum dentatum, UniProt A0A0B1TAL6); assay: biochemical; type: biochemical; settings: for Selectivity index (SI) OdPMT: IC50^Cytotoxicity/IC50^Enzyme;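 for Selectivity index (SI) OdPMT: cytotoxicity IC50 measured in HCT-8 cells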
Protocol: as §1, §2

[3] = biological target: AcPMT1 (Ancylostoma duodenale, UniProt A0A0C2DEB6); assay: biochemical; type: biochemical; settings: for Selectivity index (SI) AcPMT1: IC50^Cytotoxicity/IC50^Enzyme
Protocol: as §1, §2

[4] = biological target: DvPMT1 (Dictyocaulus viviparus, UniProt A0A0D8Y714); assay: biochemical; type: biochemical; settings: for Selectivity index (SI) DvPMT1: IC50^Cytotoxicity/IC50^Enzyme
Protocol: as §1, §2

[5] = biological target: HcPMT1 (Haemonchus contortus, UniProt U5HK46); assay: biochemical; type: biochemical; settings: for Selectivity index (SI) HcPMT1: IC50^Cytotoxicity/IC50^Enzyme
Protocol: as §1, §2

[6] = biological target: TcPMT (Toxocara canis, UniProt A0A0B2VTW9); assay: biochemical; type: biochemical; settings: for Selectivity index (SI) TcPMT: IC50^Cytotoxicity/IC50^Enzyme
Protocol: as §1, §2

[7] = tested on: nematode PMTs (HcPMT1, AcPMT1, AsPMT, DvPMT1, OdPMT1, TcPMT); assay: Cross-inhibition of the panel of nematode PMTs (statements on all PMTs together); type: biochemical, parasitic nematodes; settings: for cross-inhibitory activity against all the five PMTs: 40 μM, AcPMT1, AsPMT, DvPMT1, OdPMT1, TcPMT; for SI values based on the IC50^Enzyme values of the PMT proteins tested: all six PMTs of Table 4
Protocol: The chemical compounds were obtained from the National Cancer Institute/Developmental Therapeutics Program Open Chemical Repository. The library consisted of 419 compounds categorized as Natural Products Set IV (see Table S1). Compounds were individually reconstituted in molecular biology grade dimethyl sulfoxide (DMSO) from Sigma-Aldrich to a stock concentration of 10 mM and stored at −20°C until use. Initial screening was conducted using recombinant HcPMT1 protein as enzyme in the methyltransferase assay, with test compounds at a final concentration of 40 μM. The test reaction mixtures consisted of 40 μM test compound, 2.5 μL of SAM-free methyltransferase reaction buffer, 150 μM PE (pH 7.5), 120 μM SAM (pH 7.8), and 20 ng/μL of HcPMT1 protein, and the final volume made up to 50 μL with 1× transferase assay buffer. […] To the positive reaction mixture, instead of test compound, an equivalent volume of DMSO was added. In the negative-control reaction mixture, instead of HcPMT1 and test compound, equivalent volumes of 1× transferase buffer and DMSO, respectively, were added. Detection buffer (100 μL) containing fluorescence substrate was added into each reaction mixture. The reactions were prepared in triplicate wells in 96-well plates. The plates were covered in aluminum foil and incubated at room temperature with agitation for 30 min, followed by reading the fluorescence at 380EX/520EM. The mean percent inhibition (MPI) of the test compound on enzymatic activity was calculated using the following formula: MPI = ΔRFUpositive control − ΔRFUcompounds/ΔRFUpositive control × 100, where the positive control is a reaction without compound but with recombinant PMT protein and a volume of DMSO equivalent to that of compound used in test reactions; the negative control is the reaction without protein and compounds, but with volumes of dialysis buffer and DMSO equivalent to protein and compound added in the test reaction mixtures, respectively; ΔRFUpositive control represents the absolute relative fluorescence units (RFU) for the positive control, which equals RFUpositive control – RFUnegative control; and ΔRFUcompounds represents the absolute RFU value for the sample with the compounds, which equals RFUcompounds – RFUnegative control.
Compounds that had shown more than 50% inhibition on HcPMT1 activity and had no or very low cytotoxicity against HCT-8 cells were further tested for cross-inhibitory effect against the enzymatic activity of other recombinant PMT proteins (AcPMT1, AsPMT, DvPMT1, OdPMT, and TcPMT) at 40 μM. The enzymatic assay was set up as described above, with the respective PMT protein as enzyme. Compounds that depicted cross-inhibitory activity were further tested at various concentrations to derive their half-maximal effective concentrations (EC50) using nonlinear regression analysis by GraphPad Prism software.

[8] = read-out: Mean IC50 ± SEM, Enzyme OdPMT
[9] = read-out: Mean IC50 ± SEM, Enzyme AcPMT1
[10] = read-out: Mean IC50 ± SEM, Enzyme DvPMT1
[11] = read-out: Mean IC50 ± SEM, Enzyme HcPMT1
[12] = read-out: Mean IC50 ± SEM, Enzyme TcPMT
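Throughout, for Selectivity index (SI) AcPMT1: cytotoxicity IC50 measured in HCT-8 cells.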
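Throughout, for Selectivity index (SI) DvPMT1: cytotoxicity IC50 measured in HCT-8 cells.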
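Throughout, for Selectivity index (SI) HcPMT1: cytotoxicity IC50 measured in HCT-8 cells.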
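Throughout, for Selectivity index (SI) TcPMT: cytotoxicity IC50 measured in HCT-8 cells.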

Sequence of DvPMT1 (A0A0D8Y714 entry or part of it): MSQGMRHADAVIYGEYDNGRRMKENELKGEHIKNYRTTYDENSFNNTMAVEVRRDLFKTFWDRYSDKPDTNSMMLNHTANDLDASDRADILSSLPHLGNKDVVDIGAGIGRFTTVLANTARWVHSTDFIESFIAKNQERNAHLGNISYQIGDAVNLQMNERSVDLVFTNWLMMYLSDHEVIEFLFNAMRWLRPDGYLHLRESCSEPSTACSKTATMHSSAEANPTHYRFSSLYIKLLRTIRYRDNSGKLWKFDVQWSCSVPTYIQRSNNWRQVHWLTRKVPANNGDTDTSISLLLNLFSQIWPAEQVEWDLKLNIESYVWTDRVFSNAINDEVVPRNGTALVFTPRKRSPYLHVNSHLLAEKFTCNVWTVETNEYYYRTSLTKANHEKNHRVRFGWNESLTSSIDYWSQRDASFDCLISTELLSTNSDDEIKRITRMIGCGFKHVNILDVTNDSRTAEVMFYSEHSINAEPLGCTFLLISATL
Sequence of AcPMT1 (A0A0C2DEB6 entry or part of it): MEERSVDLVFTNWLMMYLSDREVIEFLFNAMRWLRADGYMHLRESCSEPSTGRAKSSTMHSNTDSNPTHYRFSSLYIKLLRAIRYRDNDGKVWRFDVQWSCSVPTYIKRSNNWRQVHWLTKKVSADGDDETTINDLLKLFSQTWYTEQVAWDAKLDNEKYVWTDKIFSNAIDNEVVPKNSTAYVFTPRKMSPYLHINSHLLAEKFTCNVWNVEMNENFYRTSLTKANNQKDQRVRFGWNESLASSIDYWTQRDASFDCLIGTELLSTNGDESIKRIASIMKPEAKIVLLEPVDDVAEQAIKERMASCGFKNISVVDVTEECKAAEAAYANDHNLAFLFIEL
Sequence of OdPMT (A0A0B1TAL6 entry or part of it): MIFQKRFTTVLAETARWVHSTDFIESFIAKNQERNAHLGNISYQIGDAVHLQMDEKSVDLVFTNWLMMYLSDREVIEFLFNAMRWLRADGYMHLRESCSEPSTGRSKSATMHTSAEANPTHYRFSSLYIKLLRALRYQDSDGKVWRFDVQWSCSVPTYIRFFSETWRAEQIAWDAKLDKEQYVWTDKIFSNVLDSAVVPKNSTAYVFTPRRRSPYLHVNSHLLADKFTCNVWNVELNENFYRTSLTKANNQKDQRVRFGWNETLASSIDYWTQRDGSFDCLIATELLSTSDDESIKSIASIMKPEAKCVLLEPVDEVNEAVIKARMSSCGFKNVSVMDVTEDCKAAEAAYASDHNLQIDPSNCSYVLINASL
Sequence of AsPMT (F1L4B9 entry or part of it): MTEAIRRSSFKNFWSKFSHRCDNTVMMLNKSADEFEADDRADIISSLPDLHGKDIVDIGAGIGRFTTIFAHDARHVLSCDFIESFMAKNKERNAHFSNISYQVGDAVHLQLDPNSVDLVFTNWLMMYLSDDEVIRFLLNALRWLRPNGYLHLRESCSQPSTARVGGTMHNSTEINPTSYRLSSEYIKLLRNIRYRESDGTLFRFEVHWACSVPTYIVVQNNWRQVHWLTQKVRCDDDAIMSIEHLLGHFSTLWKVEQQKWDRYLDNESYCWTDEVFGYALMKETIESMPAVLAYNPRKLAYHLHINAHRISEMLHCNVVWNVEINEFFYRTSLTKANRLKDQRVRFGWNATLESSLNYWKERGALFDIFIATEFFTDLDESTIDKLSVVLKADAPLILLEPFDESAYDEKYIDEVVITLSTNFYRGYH
Sequence of HcPMT1 (U5HK46 entry or part of it): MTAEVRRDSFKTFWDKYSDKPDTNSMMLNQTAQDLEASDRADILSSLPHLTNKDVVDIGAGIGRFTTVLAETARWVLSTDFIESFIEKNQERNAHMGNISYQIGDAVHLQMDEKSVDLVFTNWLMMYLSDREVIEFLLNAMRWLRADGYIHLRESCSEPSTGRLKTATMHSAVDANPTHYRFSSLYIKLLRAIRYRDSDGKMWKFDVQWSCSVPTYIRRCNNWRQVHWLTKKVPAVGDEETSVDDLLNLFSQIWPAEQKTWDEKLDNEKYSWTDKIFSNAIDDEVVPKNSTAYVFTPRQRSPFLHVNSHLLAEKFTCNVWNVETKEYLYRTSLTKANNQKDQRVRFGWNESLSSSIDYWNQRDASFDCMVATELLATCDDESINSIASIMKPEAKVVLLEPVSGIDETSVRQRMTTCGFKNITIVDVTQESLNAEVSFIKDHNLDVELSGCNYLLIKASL
Sequence of TcPMT (A0A0B2VTW9 entry or part of it): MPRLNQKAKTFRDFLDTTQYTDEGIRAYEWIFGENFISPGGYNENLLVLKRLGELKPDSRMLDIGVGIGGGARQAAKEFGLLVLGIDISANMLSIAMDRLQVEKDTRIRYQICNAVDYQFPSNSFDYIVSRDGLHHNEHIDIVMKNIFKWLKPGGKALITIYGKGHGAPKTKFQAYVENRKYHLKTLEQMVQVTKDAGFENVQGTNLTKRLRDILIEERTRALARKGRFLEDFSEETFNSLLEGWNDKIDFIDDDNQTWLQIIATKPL

O=c1c(O)cccc2cc(O)c(O)c(O)c12 [NSC35676, purpurogallin]
Selectivity index (SI) AsPMT [1]: 45.59
IC50 [1]: 12.4 ± 1.1 µM
Selectivity index (SI) OdPMT [2]: 33.80
IC50 [2, 8]: 16.8 ± 0.41 µM
Selectivity index (SI) AcPMT1 [3]: 49.02
IC50 [3, 9]: 11.5 ± 0.94 µM
Selectivity index (SI) DvPMT1 [4]: 13.44
IC50 [4, 10]: 42.1 ± 3.16 µM
Selectivity index (SI) HcPMT1 [5]: 27.96
IC50 [5, 11]: 20.2 ± 1.64 µM
Selectivity index (SI) TcPMT [6]: 12.35
IC50 [6, 12]: 45.9 ± 2.9 µM
cross-inhibitory activity against all the five PMTs [7]: significant cross-inhibitory activity
SI values based on the IC50^Enzyme values of the PMT proteins tested [7]: > 1

CO[C@@]12[C@H](COC(N)=O)C3=C(C(=O)C(C)=C(N)C3=O)N1C[C@H]1[C@@H]2N1C (stereo partly drawn) [NSC56410]
Selectivity index (SI) AsPMT [1]: 3.24
IC50 [1]: 58.1 ± 12.9 µM
IC50 [2]: 210 ± 73.5 µM
Selectivity index (SI) OdPMT [2]: 0.90
IC50 [3]: 68.4 ± 5.39 µM
Selectivity index (SI) AcPMT1 [3]: 2.75
IC50 [4]: 1920 µM
Selectivity index (SI) DvPMT1 [4]: 0.10
IC50 [5]: 53.5 ± 5.85 µM
Selectivity index (SI) HcPMT1 [5]: 3.52
IC50 [6]: 84.5 ± 6.53 µM
Selectivity index (SI) TcPMT [6]: 2.23
cross-inhibitory activity against all the five PMTs [7]: significant cross-inhibitory activity

COc1ccc(-c2c(C)c(C(=O)O)nc(-c3ccc4c(O)c(OC)c5c(c4n3)=NC(C)(C)N=5)c2N)c(O)c1OC [NSC62709]
Selectivity index (SI) AsPMT [1]: 6.75
IC50 [1]: 44.3 ± 1.35 µM
Selectivity index (SI) OdPMT [2]: 9.39
IC50 [2, 8]: 31.8 ± 1.8 µM
Selectivity index (SI) AcPMT1 [3]: 22.31
IC50 [3, 9]: 13.4 ± 1.3 µM
Selectivity index (SI) DvPMT1 [4]: 10.24
IC50 [4, 10]: 29.2 ± 2.13 µM
Selectivity index (SI) HcPMT1 [5]: 10.86
IC50 [5, 11]: 27.5 ± 1.97 µM
Selectivity index (SI) TcPMT [6]: 10.83
IC50 [6, 12]: 27.6 ± 1.26 µM
cross-inhibitory activity against all the five PMTs [7]: significant cross-inhibitory activity
SI values based on the IC50^Enzyme values of the PMT proteins tested [7]: > 1

COc1cc(C)c2c(c1C=O)Oc1c(c(C)c(O)c3c1C(O)OC3=O)OC2=O (stereo not drawn) [NSC87511]
Selectivity index (SI) AsPMT [1]: 0.97
IC50 [1]: 177 ± 15.6 µM
Selectivity index (SI) OdPMT [2]: 0.35
IC50 [2, 8]: 488 ± 162 µM
Selectivity index (SI) AcPMT1 [3]: 2.61
IC50 [3, 9]: 65.8 ± 9.78 µM
Selectivity index (SI) DvPMT1 [4]: 0.34
IC50 [4, 10]: 504 ± 188 µM
Selectivity index (SI) HcPMT1 [5]: 1.10
IC50 [5, 11]: 157 ± 26 µM
Selectivity index (SI) TcPMT [6]: 0.35
IC50 [6, 12]: 496 ± 184 µM
cross-inhibitory activity against all the five PMTs [7]: significant cross-inhibitory activity

CO[C@H]1/C=C/O[C@@]2(C)Oc3c(C)c(O)c4c(O)c(cc(O)c4c3C2=O)NC(=O)/C(C)=C\C=C\[C@H](C)[C@H](O)[C@@H](C)[C@@H](O)[C@@H](C)[C@H](OC(C)=O)[C@@H]1C [NSC133100]
Selectivity index (SI) AsPMT [1]: 3.00
IC50 [1]: 34 ± 2.85 µM
Selectivity index (SI) OdPMT [2]: 1.07
IC50 [2, 8]: 94.7 ± 5.03 µM
Selectivity index (SI) AcPMT1 [3]: 3.23
IC50 [3, 9]: 31.5 ± 2.25 µM
Selectivity index (SI) DvPMT1 [4]: 1.15
IC50 [4, 10]: 88.2 ± 4.14 µM
Selectivity index (SI) HcPMT1 [5]: 3.67
IC50 [5, 11]: 27.8 ± 1.71 µM
Selectivity index (SI) TcPMT [6]: 1.03
IC50 [6, 12]: 99.1 ± 9 µM
cross-inhibitory activity against all the five PMTs [7]: significant cross-inhibitory activity
SI values based on the IC50^Enzyme values of the PMT proteins tested [7]: > 1

CO[C@@H]1/C=C\O[C@]2(C)Oc3c(C)c(O)c4c(O)c(c(CN(C)C)c(O)c4c3C2=O)NC(=O)/C(C)=C\C=C[C@@H](C)[C@@H](O)[C@H](C)[C@@H](O)[C@H](C)[C@H](OC(C)=O)[C@@H]1C [NSC145612]
Selectivity index (SI) AsPMT [1]: 6.67
IC50 [1]: 45.3 ± 1.71 µM
Selectivity index (SI) OdPMT [2]: 9.11
IC50 [2, 8]: 33.2 ± 2.26 µM
Selectivity index (SI) AcPMT1 [3]: 11.05
IC50 [3, 9]: 27.4 ± 2.92 µM
Selectivity index (SI) DvPMT1 [4]: 5.49
IC50 [4, 10]: 55.1 ± 4.46 µM
Selectivity index (SI) HcPMT1 [5]: 10.83
IC50 [5, 11]: 27.9 ± 1.57 µM
Selectivity index (SI) TcPMT [6]: 2.77
IC50 [6, 12]: 109 ± 12.6 µM
cross-inhibitory activity against all the five PMTs [7]: significant cross-inhibitory activity
SI values based on the IC50^Enzyme values of the PMT proteins tested [7]: > 1

CO[C@@H]1/C=C/O[C@@]2(C)Oc3c(C)c(O)c4c(c3C2=O)C(=N[C@@H]2CC[C@@H](O)O[C@H]2C)C=C(NC(=O)/C(C)=C\C(=O)[C@@H]2C[C@@H]2[C@H](O)[C@@H](C)[C@@H](O)[C@@H](C)[C@H](OC(C)=O)[C@@H]1C)C4=O [NSC177383]
Selectivity index (SI) AsPMT [1]: 3.47
IC50 [1]: 24.6 ± 1.79 µM
Selectivity index (SI) OdPMT [2]: 3.20
IC50 [2, 8]: 26.7 ± 2 µM
Selectivity index (SI) AcPMT1 [3]: 5.76
IC50 [3, 9]: 14.8 ± 2.06 µM
Selectivity index (SI) DvPMT1 [4]: 1.80
IC50 [4, 10]: 47.6 ± 7.41 µM
Selectivity index (SI) HcPMT1 [5]: 3.93
IC50 [5, 11]: 21.7 ± 2.05 µM
Selectivity index (SI) TcPMT [6]: 2.07
IC50 [6, 12]: 41.3 ± 2.8 µM
cross-inhibitory activity against all the five PMTs [7]: significant cross-inhibitory activity
SI values based on the IC50^Enzyme values of the PMT proteins tested [7]: > 1
